Article PMC10916382, “Repurposing screen identifies novel candidates for broad-spectrum coronavirus antivirals and druggable host targets” (Antimicrobial Agents and Chemotherapy, 2024)
Structures can show the parent of a compound that is named as a salt. Where two headings read alike, the source gives them in different places.

How the values were obtained:
Huh-7.5/F-Luc cells = conditions: for % cell viability at max. dose [5 µM]: at max. dose 5 µM
HCoV-229E = experiment: microbe, parasite or virus in culture; format: cell-based, Homo sapiens sapiens
[1] = Calu-3 cells, immunofluorescence imaging
[2] = Huh-7.5 cells, dose series, maximum tested dose 5 µM
[3] = Anti-SARS-CoV-2 screening on Calu-3 cells: viability [% of control], Calu-3 cells
[4] = HCoV 229E infection, dose series, max. dose 5 µM, read-out: IC50

Compound | Anti-SARS-CoV-2 screening on Calu-3 cells: intracellular SARS-CoV-2 infection measured via immunofluorescence imaging [% of control] (SARS-CoV-2; [1]) | CC50 (µM) (Huh-7.5/F-Luc cells; [2]) | viability at 48 h, 5 µM (in vitro) [%] | IC50 (HCoV-229E; Human coronavirus 229E, Huh7.5) [nM] | viability (in vitro; [3]) [%] | viability (in vitro) [%] | Anti-SARS-CoV-2 screening on Calu-3 cells: intracellular SARS-CoV-2 infection measured via immunofluorescence imaging [% of control] (SARS-CoV-2) | CC50 (µM) (Huh-7.5/F-Luc cells) | Anti-SARS-CoV-2 screening on Calu-3 cells: viability [% of control] (SARS-CoV-2; Calu-3 cells) | % cell viability at max. dose [5 µM] (Huh-7.5/F-Luc cells) [%] | IC50 (HCoV-229E; [4]) [nM]
CC(C)(C)NC[C@H](O)COc1ccccc1C1CCCC1 [penbutolol] | 102.38 % of control | greater than maximum tested dose | 101 | 1050 |  |  |  |  |  |  | 
COc1ccc(C(C)C)cc1CNC1C2CCN(CC2)C1C(c1ccccc1)c1ccccc1 (stereo not shown) [RFM-011-108-0] | 86.21 % of control | greater than maximum tested dose | 96.4 | 850 |  |  |  |  |  |  | 
Cc1ccc(Sc2ccccc2N2CCNCC2)c(C)c1 [Vortioxetine hydrobromide] | 101.64 % of control | greater than maximum tested dose |  | 990 | 82.8 |  |  |  |  |  | 
CC1=C(c2ccc(O)cc2)[C@H](c2ccc(OCCN3CCCCC3)cc2)Oc2cc(O)ccc21 [ACOLBIFENE] | 111.23 % of control | greater than maximum tested dose | 88 | 990 |  |  |  |  |  |  | 
CCN(CC)CCN(Cc1ccc(-c2ccc(C(F)(F)F)cc2)cc1)C(=O)Cn1c(SCc2ccc(F)cc2)nc(=O)c2c1CCC2 [Darapladib] | 107.62 % of control | greater than maximum tested dose | 103 | 300 |  |  |  |  |  |  | 
COc1cccc2c1C(=O)c1c(O)c3c(c(O)c1C2=O)C[C@@](O)(C(=O)CO)C[C@@H]3O[C@H]1C[C@H](N)[C@H](O[C@@H]2CCCCO2)[C@H](C)O1 [pirarubicin] | 112.83 % of control | greater than maximum tested dose |  | 890 | 56.9 |  |  |  |  |  | 
CN(C)CCOc1ccc(/C(=C(/CCCl)c2ccccc2)c2ccccc2)cc1 [TOREMIFENE CITRATE] | 114.97 % of control | greater than maximum tested dose |  | 1020 |  | 95.3 |  |  |  |  | 
CCSc1ccc2c(c1)N(CCCN1CCN(C)CC1)c1ccccc1S2 [Thiethylperazine dimaleate] | 110.38 % of control | greater than maximum tested dose |  | 930 | 95.3 |  |  |  |  |  | 
CNCc1ccc(OC)c([C@]2(N3CCC[C@H]3c3ncco3)C(=O)N(S(=O)(=O)c3ccc(OC)cc3)c3ccc(Cl)cc32)c1 [RFM-011-200-5] | 106.10 % of control | greater than maximum tested dose |  | 700 | 117 |  |  |  |  |  | 
CNCc1ccc(C)c(NC(=O)c2ccc(Nc3nc(-c4ccccc4)c4ccccc4n3)cc2)c1 [XL-139] | 109.44 % of control | greater than maximum tested dose |  | 620 | 107 |  |  |  |  |  | 
CC(C)(Cc1ccc2ccccc2c1)NC[C@@H](O)COc1cccc(Cl)c1C#N [SB 262470] | 110.66 % of control | greater than maximum tested dose |  | 960 | 106 |  |  |  |  |  | 
CN(C)CCOC1=Cc2ccccc2Sc2ccc(Cl)cc21 [zotepine] | 107.66 % of control | greater than maximum tested dose | 98.1 | 1040 |  |  |  |  |  |  | 
CC(C)(C)c1cnc(CSc2cnc(NC(=O)C3CCNCC3)s2)o1 [SNS-032] | 132.10 % of control | greater than maximum tested dose |  | 210 | 39.8 |  |  |  |  |  | 
OCCN1CCN(CC/C=C2/c3ccccc3Sc3ccc(Cl)cc32)CC1 [ZUCLOPENTHIXOL] | 108.85 % of control | greater than maximum tested dose | 110 | 1130 |  |  |  |  |  |  | 
COc1ccc(C(C)C)cc1CN[C@@H]1C2CCN(CC2)[C@H]1C(c1ccccc1)c1ccccc1 [RFM-011-107-9] | 82.87 % of control | greater than maximum tested dose | 83.9 | 1100 |  |  |  |  |  |  | 
CN1CCC(CNc2ccc3ncc(-c4cccc(OC(F)(F)F)c4)n3n2)CC1 [SGI-1776] | 100.18 % of control | greater than maximum tested dose |  | 560 | 94.5 |  |  |  |  |  | 
CC/C(=C(\c1ccc(O)cc1)c1ccc(OCCN(C)C)cc1)c1ccccc1 [Afimoxifene] | 100.60 % of control | greater than maximum tested dose |  | 630 | 93.4 |  |  |  |  |  | 
CC/C(=C(\c1ccccc1)c1ccc(OCCN(C)C)cc1)c1ccccc1 [Tamoxifen citrate] |  |  | 102 |  |  |  | 106.52 % of control | greater than maximum tested dose |  |  | 
CCN(CC)CCOc1ccc(/C(=C(/Cl)c2ccccc2)c2ccccc2)cc1 [enclomiphene citrate] |  |  | 102 |  |  |  | 91.35 % of control | greater than maximum tested dose |  |  | 
CC(C)c1ccc(C(=O)c2cccs2)c(SCCCCCCCCN(C)C)n1 [Y 29794] | 99.31 % of control | greater than maximum tested dose |  |  |  |  |  |  | 88.61 % of control | 121.37 | 330
CC(C)c1ccc2c(c1)C(N1CCN(CCO)CC1)Cc1ccc(F)cc1S2 (stereo not shown) [isofloxythepin] | 105.07 % of control | greater than maximum tested dose |  |  |  |  |  |  | 97.70 % of control | 141.51 | 790
COc1ccc2cc(S(=O)(=O)N[C@H](CC(=O)N[C@H](Cc3ccc(CN4[C@H](C)CCC[C@@H]4C)cc3)C(=O)N(C)C(C)C)c3ccc4c(c3)OCO4)ccc2c1 [SSR240612] | 125.70 % of control | greater than maximum tested dose |  |  |  |  |  |  | 108.83 % of control | 127.22 | 530
CN[C@H]1CC[C@@H](c2ccc(Cl)c(Cl)c2)c2ccccc21 [sertraline hydrochloride] |  |  | 101 |  |  |  | 122.16 % of control | greater than maximum tested dose |  |  | 
CN1CC[C@H](c2c(O)cc(O)c3c(=O)cc(-c4ccccc4Cl)oc23)[C@H](O)C1 [Flavopiridol (Alvocidib)] | 15.82 % of control | greater than maximum tested dose |  |  |  |  |  |  | 90.90 % of control | 115.14 | 140
CN(C)CCCN1c2ccccc2Sc2ccc(Cl)cc21 [Chlorpromazine69-09-0] | 120.36 % of control | greater than maximum tested dose |  |  |  |  |  |  | 118.10 % of control | 144.29 | 770
CN(C)CCCOC(CCCCc1ccccc1)c1ccccc1 (stereo not shown) [SM-3163] | 105.69 % of control | greater than maximum tested dose |  |  |  |  |  |  | 103.94 % of control | 166.12 | 770
COc1cc(/C=C/C=C/C(=O)NCCN2CCC(OC(c3ccccc3)c3ccccc3)CC2)ccc1O [TMK-777] | 102.42 % of control | greater than maximum tested dose |  |  |  |  |  |  | 98.98 % of control | 150.43 | 1130
C=CCc1c(OCCCNCc2ccccc2)ccc2c1[nH]c1ccccc12 [YM-75440] | 109.36 % of control | greater than maximum tested dose |  |  |  |  |  |  | 100.37 % of control | 65.35 | 730
CCNCc1cncc(-c2ccc3[nH]nc(-c4nc5c(F)cc(F)cc5[nH]4)c3c2)c1C [AG-024322] | 108.94 % of control | greater than maximum tested dose |  |  |  |  |  |  | 54.61 % of control | 151.27 | 780
CC/C(=C(\c1ccc(O)cc1)c1ccc(OCCNC)cc1)c1ccccc1.Cl [Endoxifen (hydrochloride)] | 114.51 % of control | greater than maximum tested dose |  |  |  |  |  |  | 90.44 % of control | 148.79 | 560
